The results in this text go back to ChEMBL document CHEMBL1201862, “PubChem BioAssay data set” (2004).

Test systems include SK-MEL-5; NCI-H226; MCF7; OVCAR-4; CAKI-1; SK-MEL-2; SK-OV-3; MOLT-4; CCRF-CEM; NCI-H460; RXF 393; K562; UO-31; UACC-257; SF-539; OVCAR-8; SR; MDA-MB-231; HCT-15; M14.
Holding throughout (experiment): growth of human tumour cells (NCI), 48 h

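All cell lines were grown in 96-well plates and treated with compound for 48 hours. GI50: concentration for 50% inhibition of growth.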 Active and inactive are the calls of the source. No stated cut-off is given here; in the data, active = GI50 up to about 1.1 µM and inactive = higher.

Regarding `Nc1nc(N)c2nc(CNc3ccc(C(=O)O)cc3)[nH]c2n1`, the GI50 in the assay on SK-MEL-5, in the assay with NCI-H226, in the assay with MCF7, in the assay with OVCAR-4, with CAKI-1 and with SK-MEL-2 was > 100 µM (inactive) throughout. Further, the GI50 in the assay on SK-OV-3, in the assay with MOLT-4, with CCRF-CEM, in the assay with NCI-H460, in the assay with RXF 393 and in the assay on K562 was > 100 µM (inactive) throughout. Further, the GI50 in the assay on UO-31, with UACC-257, in the assay on SF-539, in the assay with OVCAR-8, in the assay with SR and in the assay with MDA-MB-231 was > 100 µM (inactive) each time. The figures for the GI50 with HCT-15 and in the assay on M14 were more than 100 µM and > 100 µM (inactive), respectively.
As to `COc1cc(C2C3=C(COC3=O)OC(C)(C)Oc3cc4c(cc32)OCO4)cc(OC)c1OC` (stereo not given), the GI50 in the assay with SK-MEL-5 was 0.348 µM (active); in the assay with NCI-H226 it was 0.885 µM (active); in the assay with MCF7 it was 0.415 µM (active); in the assay with OVCAR-4 it was 3.3 µM (inactive); in the assay on CAKI-1, 2.27 µM (inactive); in the assay on SK-MEL-2, 0.673 µM (active). Further, the GI50 was 0.476 µM (active) in the assay with SK-OV-3; 0.453 µM (active) in the assay on MOLT-4; 0.395 µM (active) in the assay on CCRF-CEM; 0.365 µM (active) in the assay with NCI-H460; 0.259 µM (active) in the assay with RXF 393; 0.353 µM (active) in the assay with K562. For the same compound, the GI50 with UO-31 is 0.426 µM (active); with UACC-257 it was 1.17 µM (inactive); in the assay on SF-539 it was 0.212 µM (active); in the assay on OVCAR-8 it was 0.342 µM (active); with SR, 0.195 µM (active); in the assay on MDA-MB-231 it was 0.358 µM (active). The GI50 with HCT-15 is 0.372 µM; with M14 it was 0.281 µM (active).
Consider `CC(C)N(C(C)C)S(=O)(=O)CC12CCC(C/C1=N\O)C2` (stereo not given), for which the GI50 with SK-MEL-5, with NCI-H226, in the assay on MCF7, in the assay with OVCAR-4, in the assay with CAKI-1 and in the assay with SK-MEL-2 was > 100 µM (inactive) in each case. Also, the GI50 in the assay with SK-OV-3, in the assay with MOLT-4, in the assay with CCRF-CEM, in the assay with NCI-H460, in the assay on RXF 393 and in the assay with K562 was > 100 µM (inactive) throughout. The GI50 with UO-31, with UACC-257, in the assay with SF-539, in the assay with OVCAR-8, in the assay on SR and with MDA-MB-231 was > 100 µM (inactive) throughout. Moreover, the GI50 with HCT-15 was more than 100 µM; with M14, > 100 µM (inactive).
On to `COc1ccc2nc3ccc(OC)cc3c(SCCCl)c2c1`, for which the GI50 was 8.87 µM (inactive) in the assay with SK-MEL-5; > 48.4 µM (inactive) with NCI-H226; 2 µM (inactive) with MCF7; 12.7 µM (inactive) with OVCAR-4; 3.82 µM (inactive) in the assay with CAKI-1; 20.7 µM (inactive) in the assay on SK-MEL-2. The GI50 was > 74 µM (inactive) in the assay on SK-OV-3; 2.79 µM (inactive) in the assay with MOLT-4; 2.75 µM (inactive) in the assay on CCRF-CEM; 33.9 µM (inactive) in the assay with NCI-H460; > 20.6 µM (inactive) in the assay with RXF 393; 9.66 µM (inactive) with K562. Further, the GI50 was 32 µM (inactive) in the assay with UO-31; > 46.1 µM (inactive) in the assay with UACC-257; 7.21 µM (inactive) in the assay with SF-539; 8.57 µM (inactive) with OVCAR-8; 4.8 µM (inactive) in the assay with SR; 18.8 µM (inactive) in the assay with MDA-MB-231. Moreover, the GI50 with HCT-15 was 12.7 µM; in the assay with M14 it was 12.3 µM (inactive).
`COC1=CC(=O)c2c(c(-c3nc(C)cs3)cn2C)C1=O`: the GI50 was 1.2 µM (inactive) with SK-MEL-5; 16.7 µM (inactive) with NCI-H226; 2.62 µM (inactive) with MCF7; 18.5 µM (inactive) in the assay with OVCAR-4; 5.97 µM (inactive) in the assay on CAKI-1; 3.03 µM (inactive) in the assay on SK-MEL-2. For the same compound, the GI50 in the assay on SK-OV-3 was 41.2 µM (inactive); in the assay on MOLT-4 it was 15.2 µM (inactive); in the assay on CCRF-CEM, 4.5 µM (inactive); in the assay on NCI-H460, 1.25 µM (inactive); in the assay with RXF 393, 20.4 µM (inactive); in the assay with K562, 2.62 µM (inactive). The GI50 was 4.53 µM (inactive) with UO-31; 1.82 µM (inactive) in the assay on UACC-257; 2.2 µM (inactive) with SF-539; 4.56 µM (inactive) in the assay with OVCAR-8; 4.95 µM (inactive) in the assay on SR; 15.7 µM (inactive) in the assay with MDA-MB-231. Moreover, the values for the GI50 in the assay on HCT-15 and with M14 were 1.28 µM and 2.13 µM (inactive), respectively.
Regarding `CC[C@H]1C=CCC[C@@]2(C[C@@H]3CC[C@@H]4[C@H](C(=O)OCCCCCCCCCCCCCCCC(=O)O)[C@]5(CCC[C@@H](C)O5)NC(=[N+]34)N2)O1` [CRAMBESCIDIN 657], the GI50 is 0.104 µM (active) in the assay with SK-MEL-5; 0.273 µM (active) in the assay with NCI-H226; 0.214 µM (active) in the assay on MCF7; 0.157 µM (active) in the assay with OVCAR-4; 0.182 µM (active) with CAKI-1; 0.127 µM (active) in the assay on SK-MEL-2. The GI50 in the assay with SK-OV-3 was 5.38 µM (inactive); with MOLT-4, 0.109 µM (active); with CCRF-CEM, 0.005 µM (active); in the assay with NCI-H460, 0.188 µM (active); in the assay on RXF 393, 0.216 µM (active); in the assay on K562, 0.121 µM (active). Besides, the GI50 is 0.125 µM (active) in the assay with UO-31; 0.12 µM (active) in the assay with UACC-257; 0.272 µM (active) in the assay with SF-539; 0.23 µM (active) in the assay with OVCAR-8; 0.0521 µM (active) in the assay on SR; 0.281 µM (active) in the assay on MDA-MB-231. The GI50 is 0.525 µM in the assay with HCT-15 and 0.1 µM (active) in the assay with M14.
